ChEMBL document CHEMBL5665443, “Enzyme Inhibitor Single Concentration assay results for EUbOPEN Chemogenomics Library” (2024)
“And” between values parts separate entries of the source, which are not always exact repeats. Equal values may be shown once.

How the values were obtained:
Details in all cases: Compound Concentration 10.0 uM, Hit No
[1] = biological target: N-glycosylase/DNA lyase (Homo sapiens) (UniProt O15527);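 also: OGG1 cleavage of a quenched duplex DNA oligonucleotide, coupled to APE1 for strand incision, read as fluorescence at 594 nm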
N-glycosylase/DNA lyase (Homo sapiens), sequence (O15527 whole entry): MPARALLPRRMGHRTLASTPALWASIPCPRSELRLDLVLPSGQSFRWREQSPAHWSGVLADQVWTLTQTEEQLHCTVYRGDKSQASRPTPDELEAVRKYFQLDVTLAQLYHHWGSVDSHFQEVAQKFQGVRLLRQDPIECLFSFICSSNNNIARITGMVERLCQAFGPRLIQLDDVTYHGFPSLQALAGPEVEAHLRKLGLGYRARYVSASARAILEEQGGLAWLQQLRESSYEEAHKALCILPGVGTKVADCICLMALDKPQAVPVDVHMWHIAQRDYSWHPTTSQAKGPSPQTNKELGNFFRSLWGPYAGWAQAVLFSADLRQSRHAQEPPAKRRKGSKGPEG
Description: Inhibition of OGG1 by quantifying inhibition of OGG1-mediated cleavage and dissociation of quenched duplex DNA oligonucleotides, measured as fluorescence at 594 nm. To generate a functional strand incision and increase turn-over this assay is coupled to APE1.

[2] = biological target: T1, Adenine DNA glycosylase (Homo sapiens) (UniProt Q9UIF7);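 also: human MUTYH activity read as 594 nm fluorescence from cleavage and release of a quenched DNA duplex, coupled with APE1 for strand incision, lower signal meaning inhibition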
T1 sequence (whole entry): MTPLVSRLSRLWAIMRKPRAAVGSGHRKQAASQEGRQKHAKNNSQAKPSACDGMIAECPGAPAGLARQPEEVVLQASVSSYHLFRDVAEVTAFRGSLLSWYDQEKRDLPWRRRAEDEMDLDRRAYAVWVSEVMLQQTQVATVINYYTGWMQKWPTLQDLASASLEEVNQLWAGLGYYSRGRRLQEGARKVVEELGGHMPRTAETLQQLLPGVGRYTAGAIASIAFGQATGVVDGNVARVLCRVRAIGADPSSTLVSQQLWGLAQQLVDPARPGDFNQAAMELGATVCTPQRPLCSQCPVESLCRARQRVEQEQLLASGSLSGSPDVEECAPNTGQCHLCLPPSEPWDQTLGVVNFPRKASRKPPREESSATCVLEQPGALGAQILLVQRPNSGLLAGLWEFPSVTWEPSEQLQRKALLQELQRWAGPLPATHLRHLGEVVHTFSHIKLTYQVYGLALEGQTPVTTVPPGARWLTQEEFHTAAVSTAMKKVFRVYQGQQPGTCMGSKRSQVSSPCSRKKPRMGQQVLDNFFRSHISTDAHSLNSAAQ
Description: Inhibition of MUTYH by quantifying inhibition of MUTYH-mediated cleavage and dissociation of quenched duplex DNA oligonucleotides, measured as fluorescence at 594 nm. To generate a functional strand incision and increase turn-over this assay is coupled to APE1.

[3] = biological target: Methyl-CpG-binding domain protein 4 (Homo sapiens) (UniProt O95243);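 also: MBD4 activity read as fluorescence at 594 nm from cleavage and release of a quenched duplex DNA oligonucleotide, with APE1 coupled to incise the strand and raise turnover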
Methyl-CpG-binding domain protein 4 (Homo sapiens), sequence (O95243 whole entry, the tested form may be a part): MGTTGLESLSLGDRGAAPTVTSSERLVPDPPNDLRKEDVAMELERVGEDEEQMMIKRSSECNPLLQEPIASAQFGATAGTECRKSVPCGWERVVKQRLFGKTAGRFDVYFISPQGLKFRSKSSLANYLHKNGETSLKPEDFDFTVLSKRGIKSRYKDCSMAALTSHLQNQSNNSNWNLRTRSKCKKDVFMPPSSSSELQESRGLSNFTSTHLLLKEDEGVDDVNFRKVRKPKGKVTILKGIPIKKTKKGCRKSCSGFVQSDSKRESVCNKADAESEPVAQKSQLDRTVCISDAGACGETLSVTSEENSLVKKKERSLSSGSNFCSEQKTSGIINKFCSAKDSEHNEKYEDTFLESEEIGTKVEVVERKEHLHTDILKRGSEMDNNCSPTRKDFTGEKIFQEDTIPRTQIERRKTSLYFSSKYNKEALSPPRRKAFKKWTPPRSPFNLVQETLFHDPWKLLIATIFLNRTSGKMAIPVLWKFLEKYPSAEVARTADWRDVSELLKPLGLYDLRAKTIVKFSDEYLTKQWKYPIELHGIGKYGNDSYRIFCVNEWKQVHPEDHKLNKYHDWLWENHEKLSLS
Description: Inhibition of MBD4 by quantifying inhibition of MBD4-mediated cleavage and dissociation of quenched duplex DNA oligonucleotides, measured as fluorescence at 594 nm. To generate a functional strand incision and increase turn-over this assay is coupled to APE1.

[4] = biological target: G/T mismatch-specific thymine DNA glycosylase (Homo sapiens) (UniProt Q13569);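 also: human TDG cleavage of quenched duplex DNA oligonucleotides coupled to APE1, strand release read as fluorescence at 594 nm, inhibition of TDG activity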
G/T mismatch-specific thymine DNA glycosylase (Homo sapiens), sequence (Q13569 whole entry): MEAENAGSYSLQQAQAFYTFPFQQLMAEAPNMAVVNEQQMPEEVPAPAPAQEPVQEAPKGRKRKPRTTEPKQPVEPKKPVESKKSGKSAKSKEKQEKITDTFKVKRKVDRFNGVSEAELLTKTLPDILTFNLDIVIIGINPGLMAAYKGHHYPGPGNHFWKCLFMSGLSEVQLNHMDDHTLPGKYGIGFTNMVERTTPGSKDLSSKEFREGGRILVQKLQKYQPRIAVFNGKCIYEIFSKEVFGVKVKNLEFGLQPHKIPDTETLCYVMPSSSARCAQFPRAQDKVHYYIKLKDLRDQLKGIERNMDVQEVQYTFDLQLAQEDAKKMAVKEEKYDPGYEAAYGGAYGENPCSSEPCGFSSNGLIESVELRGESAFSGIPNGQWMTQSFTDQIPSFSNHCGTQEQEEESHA
Description: Inhibition of TDG by quantifying inhibition of TDG-mediated cleavage and dissociation of quenched duplex DNA oligonucleotides, measured as fluorescence at 594 nm. To generate a functional strand incision and increase turn-over this assay is coupled to APE1.

[5] = biological target: Uracil-DNA glycosylase (Homo sapiens) (UniProt P13051);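 also: UNG excision on a quenched double-stranded DNA oligo probe, with APE1 added for strand incision and turnover, read as fluorescence at 594 nm as strands separate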
Uracil-DNA glycosylase (Homo sapiens), sequence (P13051 whole entry): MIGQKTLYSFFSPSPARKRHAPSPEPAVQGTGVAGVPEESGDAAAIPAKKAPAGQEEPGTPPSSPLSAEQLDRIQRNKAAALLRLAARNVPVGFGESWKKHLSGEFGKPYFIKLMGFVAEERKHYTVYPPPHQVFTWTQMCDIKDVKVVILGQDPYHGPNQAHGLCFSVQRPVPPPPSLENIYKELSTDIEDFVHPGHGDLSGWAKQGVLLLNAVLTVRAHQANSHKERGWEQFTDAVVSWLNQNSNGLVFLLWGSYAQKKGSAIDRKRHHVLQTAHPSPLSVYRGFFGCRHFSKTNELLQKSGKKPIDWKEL
Description: Inhibition of UNG by quantifying inhibition of UNG-mediated cleavage and dissociation of quenched duplex DNA oligonucleotides, measured as fluorescence at 594 nm. To generate a functional strand incision and increase turn-over this assay is coupled to APE1.

[6] = biological target: T2, Single-strand selective monofunctional uracil DNA glycosylase (Homo sapiens) (UniProt Q53HV7);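 also: enzymatic SMUG1 assay coupled with APE1, reading fluorescence at 594 nm released when a quenched double-stranded DNA oligonucleotide substrate is cleaved and separated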
T2 sequence (whole entry): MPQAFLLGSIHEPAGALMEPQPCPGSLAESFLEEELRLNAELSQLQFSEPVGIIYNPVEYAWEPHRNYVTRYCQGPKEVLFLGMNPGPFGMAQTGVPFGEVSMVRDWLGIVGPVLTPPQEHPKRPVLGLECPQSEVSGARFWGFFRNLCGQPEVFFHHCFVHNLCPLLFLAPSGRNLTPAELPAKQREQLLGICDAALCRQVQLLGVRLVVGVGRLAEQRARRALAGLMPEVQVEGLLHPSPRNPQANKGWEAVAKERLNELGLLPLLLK
Description: Inhibition of SMUG1 by quantifying inhibition of SMUG1-mediated cleavage and dissociation of quenched duplex DNA oligonucleotides, measured as fluorescence at 594 nm. To generate a functional strand incision and increase turn-over this assay is coupled to APE1.

[7] = biological target: DNA-3-methyladenine glycosylase (Homo sapiens) (UniProt P29372);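 also: enzyme assay where MPG cuts a quenched duplex DNA oligonucleotide probe, paired with APE1 for strand incision and turnover, read as fluorescence at 594 nm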
DNA-3-methyladenine glycosylase (Homo sapiens), sequence (P29372 whole entry): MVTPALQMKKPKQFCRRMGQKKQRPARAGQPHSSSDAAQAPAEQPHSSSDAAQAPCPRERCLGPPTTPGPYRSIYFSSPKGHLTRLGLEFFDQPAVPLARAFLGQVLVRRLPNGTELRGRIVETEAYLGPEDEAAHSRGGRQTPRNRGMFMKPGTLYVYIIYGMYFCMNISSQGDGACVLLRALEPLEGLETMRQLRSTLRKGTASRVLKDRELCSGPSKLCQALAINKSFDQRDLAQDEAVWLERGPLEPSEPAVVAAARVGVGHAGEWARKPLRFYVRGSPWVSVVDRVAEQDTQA
Description: Inhibition of MPG by quantifying inhibition of MPG-mediated cleavage and dissociation of quenched duplex DNA oligonucleotides, measured as fluorescence at 594 nm. To generate a functional strand incision and increase turn-over this assay is coupled to APE1.

[8] = biological target: Endonuclease 8-like 1 (Homo sapiens) (UniProt Q96FI4);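 also: fluorescence at 594 nm from quenched duplex DNA oligonucleotides released by NEIL1 cleavage and strand separation, reported as reduction of this enzyme activity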
Endonuclease 8-like 1 (Homo sapiens), sequence (Q96FI4 whole entry): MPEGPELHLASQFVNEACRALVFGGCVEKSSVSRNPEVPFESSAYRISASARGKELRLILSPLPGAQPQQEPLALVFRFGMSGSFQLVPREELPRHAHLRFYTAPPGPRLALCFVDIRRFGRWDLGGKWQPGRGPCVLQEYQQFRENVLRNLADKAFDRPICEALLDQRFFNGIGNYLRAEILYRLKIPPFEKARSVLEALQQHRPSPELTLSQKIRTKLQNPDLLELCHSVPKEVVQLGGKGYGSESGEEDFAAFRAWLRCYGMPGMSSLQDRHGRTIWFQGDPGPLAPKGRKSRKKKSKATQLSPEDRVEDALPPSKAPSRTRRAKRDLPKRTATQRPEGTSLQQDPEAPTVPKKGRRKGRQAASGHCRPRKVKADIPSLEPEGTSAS
Description: Inhibition of NEIL1 by quantifying inhibition of NEIL1-mediated cleavage and dissociation of quenched duplex DNA oligonucleotides, measured as fluorescence at 594 nm.

[9] = biological target: T3, Endonuclease III-like protein 1 (Homo sapiens) (UniProt P78549);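 also: enzyme assay tracking NTHL1 cutting and release of a quenched double-stranded DNA oligo substrate, read as fluorescence at 594 nm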
T3 sequence (whole entry): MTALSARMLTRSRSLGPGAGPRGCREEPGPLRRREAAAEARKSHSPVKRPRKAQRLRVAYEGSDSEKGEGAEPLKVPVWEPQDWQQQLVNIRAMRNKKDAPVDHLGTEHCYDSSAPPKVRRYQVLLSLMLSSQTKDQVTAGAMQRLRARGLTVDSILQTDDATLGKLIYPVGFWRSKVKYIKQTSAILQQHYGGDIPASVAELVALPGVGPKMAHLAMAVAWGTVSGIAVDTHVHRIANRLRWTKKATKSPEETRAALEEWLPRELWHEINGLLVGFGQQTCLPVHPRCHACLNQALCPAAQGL
Description: Inhibition of NTHL1 by quantifying inhibition of NTHL1-mediated cleavage and dissociation of quenched duplex DNA oligonucleotides, measured as fluorescence at 594 nm.

[10] = biological target: T4, Endonuclease 8-like 2 (Homo sapiens) (UniProt Q969S2);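 also: fluorescence at 594 nm reports NEIL2 cutting and release of a quenched double-stranded DNA oligo substrate, reduced signal read as inhibition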
T4 sequence (whole entry): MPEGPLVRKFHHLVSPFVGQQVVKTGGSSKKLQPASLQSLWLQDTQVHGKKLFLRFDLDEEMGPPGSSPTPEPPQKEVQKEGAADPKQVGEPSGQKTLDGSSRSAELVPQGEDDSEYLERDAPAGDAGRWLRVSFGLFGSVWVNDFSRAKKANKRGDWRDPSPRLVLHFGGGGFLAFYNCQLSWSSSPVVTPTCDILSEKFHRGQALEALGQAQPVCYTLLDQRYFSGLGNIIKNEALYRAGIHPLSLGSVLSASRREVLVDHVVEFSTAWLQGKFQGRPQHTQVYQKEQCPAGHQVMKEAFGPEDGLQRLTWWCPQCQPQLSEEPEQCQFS
Description: Inhibition of NEIL2 by quantifying inhibition of NEIL2-mediated cleavage and dissociation of quenched duplex DNA oligonucleotides, measured as fluorescence at 594 nm.

SMILES | inhibition [1] | inhibition [2] | inhibition [3] | inhibition [4] | inhibition [5] | inhibition [6] | inhibition [7] | inhibition [8] | inhibition [9] | inhibition [10]
COc1ccc2c(c1)C(C(=O)N(Cc1ccc(N(C)C)cc1)c1ccc(C(C)C)cc1)CCC2 (stereo unspecified) | 3.53% | 34.4% | 26.8% | 15.3% | -2.75% | -6.91% | 34.2% | 4.6% | 0.568% | –
Cc1cccc(C2CN(C)CCc3c2cc(O)c(O)c3Cl)c1 (stereo unspecified) | -8.27% | 33.4% | 26.4% | 27.7% | -2.8% | -3.57% | 15% | -4.88% | 7.17% | –
CCCCCNC(=O)NS(=O)(=O)c1cc([N+](=O)[O-])ccc1NC1CCCCC1 | 8.51% | 30.5% | 22.7% | 23.6% | – | 13.9% | 19.1% | -1.39% | 14.4% | 14.5%
CC(C)[C@@H]1CC[C@@H](C)C[C@@H]1P(=O)(c1ccccc1)c1ccccc1 | -2.54% | 1.29% | 3.26% | -6.96% | – | -9.39% | -5.97% | -6.96% | 6.35% | –
COc1cccc([C@H](O)C2CCN(CCc3ccc(F)cc3)CC2)c1OC | -1.39% | -6.25% | 14.4% | 22.3% | – | 4.47% | -10% | -1.98% | 3.39% | -8.72%
CCCNS(=O)(=O)Nc1ncnc(OCCOc2ncc(Br)cn2)c1-c1ccc(Br)cc1 | 2.2% | 26.1% | 24.4% | 18.3% | – | -4.93% | 19% | -4.06% | 7.05% | 2.51%
Cc1nnn(-c2ccc(-c3ccc(C4(C(=O)O)CC4)cc3)cc2)c1NC(=O)O[C@H](C)c1ccccc1 | -1.41% | 17.2% | 34.4% | 20.7% | – | 4.91% | 13.9% | -1.39% | -7.6% | 4.01%
N=C(N)NC(=O)Cc1c(Cl)cccc1Cl | -0.992% | -4.2% | -6.99% | 3.06% | – | 3.31% | -0.939% | 10.8% | 20.2% | 12.5%
NCCc1cccs1 | – | -1.84% | 2.05% | 6.37% | -3.89% | -0.24% | -5.51% | 7.57% | 8.82% | 9.33%
Cc1nnc2ccc(-c3cccc(C(F)(F)F)c3)nn12 | – | -2.78% | 9.3% | 5.5% | -4.72% | -2.84% | -6.43% | 1.34% | 22% | -0.86%
O=S1(=O)NCN(C2CC2)c2ccc(F)cc21 | – | 6.74% | 0.854% | 10.8% | -3.37% | -1.26% | 3.15% | 3.86% | 10.5% | 8.57%
O=C(Nc1cc(-c2ccccc2)nn1-c1ccccc1F)c1ccc([N+](=O)[O-])cc1 | – | 7.68% | -1.82% | -4.55% | -0.319% | -6.29% | 9.2% | -2.66% | 24.5% | 2.96%
COC(=O)N1CCN(C(=O)Cc2ccc(Cl)c(Cl)c2)C(CN2CCCC2)C1 (stereo unspecified) | – | 4.69% | 11.3% | -7.07% | -7.49% | -9.51% | -2.31% | 4.16% | 19.6% | 0.414%
Cc1c(F)cccc1[C@H]1COC(N)=N1 | – | 32.1% | 5.02% | 11.7% | -1.2% | -8.55% | 12.2% | 11.3% | 14.6% | -0.86%
CN[C@@H](C)C/C=C/c1cncc(OC(C)C)c1 | – | 16.8% | 1.46% | 4.54% | -5.51% | -1.2% | -3.71% | -3.1% | 4.7% | 6.78%
CNc1nc(-c2ccc3c(N)n[nH]c3c2)cc(N2C[C@@H](C(=O)NC3CCCCC3)CC[C@H]2C)n1 | – | 25.6% | 21.4% | 57.1% | 5.37% | 20.7% | 23.1% | 3.84% | -2% | -5.15%
O=C(O)c1n[nH]c2c1C[C@H]1C[C@@H]21 | -1.41% | -6.12% | -4.32% | -5.48% | – | -5.22% | -4.72% | -0.352% and 3.65% | 21.7% | -1.48% and -4.98%
COCc1nc2cnc3cc(-c4c(C)noc4C)c(OC[C@H]4CCNC4)cc3c2n1[C@H](C)c1ccccc1 | – | 2.41% | 57.4% | 54.7% | -1.93% | -7.21% | -8.22% | -6.95% | -9.18% | -1.25%
CSc1cc2c(cc1C(F)(F)F)N(C(=O)Nc1cccnc1)CC2 | -1.82% | -9.06% | -9.84% | 11.2% | – | 4.28% | -3.29% | 6.91% | 5.59% | 16.2%
COc1cc(C(=O)N(CCC2CCCN2C)C/C(C)=C/c2ccccc2F)cc(OC)c1OC (stereo unspecified) | – | -4.18% | -5.37% | 0.239% | -3.28% | -3.01% | -9.88% | 4.16% | -5.21% | -1.62%
N#Cc1ccc(O[C@@H]2c3ccccc3C[C@H]2N2CCC[C@@H](N)C2)c(Cl)c1 | – | 0.102% | -4.66% | 18.8% | -1.13% | -4.87% | -4.18% | 13.1% | 3.87% | 3.73%
N[C@@]1(C(=O)O)CC[C@H]2[C@H](C(=O)O)[C@H]21 | – | 4.77% | 2.62% | 13.1% | -8.38% | 2.53% | -1.43% | 5.05% | 27.8% | -1.37%
CC(C)(O)c1cnc(N2C[C@@]3(CCC[C@](C)(Cn4cnc5ccc(C#N)cc54)C3)OC2=O)cn1 | – | 47.1% | 9.84% | 6.22% | -2.44% | 2.98% | 10.5% | 1.2% | 8% | 5.76%
